Measured values taken from ChEMBL document CHEMBL1201862, “PubChem BioAssay data set” (2004).
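Results reflect a 48-hour exposure of cells in 96-well plates to compound at five concentrations. Here, GI50 denotes the concentration required for 50% inhibition of growth.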 Active and inactive are the calls of the source. Cut-off read from the data, not from the text of the source: active = GI50 up to about 1.1 µM and inactive = higher.

Experiments:
Experiment in all cases: inhibition of tumour cell growth, NCI panel, 48 h
NCI-H23 = tested on: NCI-H23
SF-295 = tested on: SF-295
A498 = tested on: A498
NCI-H460 = tested on: NCI-H460
SN12C = tested on: SN12C
SK-OV-3 = tested on: SK-OV-3
HOP-62 = tested on: HOP-62
UACC-257 = tested on: UACC-257
U-251 = tested on: U-251
HCT-15 = tested on: HCT-15
HT-29 = tested on: HT-29
K562 = tested on: K562
HL-60 = tested on: HL-60
SW-620 = tested on: SW-620
SF-539 = tested on: SF-539
COLO 205 = tested on: COLO 205
Hs-578T = tested on: Hs-578T
SK-MEL-28 = tested on: SK-MEL-28
CCRF-CEM = tested on: CCRF-CEM
Malme-3M = tested on: Malme-3M

Structure (SMILES)	GI50 (NCI-H23)	GI50 (SF-295)	GI50 (A498)	GI50 (NCI-H460)	GI50 (SN12C)	GI50 (SK-OV-3)	GI50 (HOP-62)	GI50 (UACC-257)	GI50 (U-251)	GI50 (HCT-15) [µM]	GI50 (HT-29)	GI50 (K562)	GI50 (HL-60)	GI50 (SW-620)	GI50 (SF-539)	GI50 (COLO 205)	GI50 (Hs-578T)	GI50 (SK-MEL-28)	GI50 (CCRF-CEM)	GI50 (Malme-3M)
O=c1n(-c2ccccc2)c(=O)n2n1C1CCC2CC1	> 100 µM (inactive)	> 100 µM (inactive)	> 100 µM (inactive)	> 100 µM (inactive)	> 100 µM (inactive)	> 100 µM (inactive)	> 100 µM (inactive)	> 100 µM (inactive)	> 100 µM (inactive)	> 100	> 100 µM (inactive)	> 100 µM (inactive)	> 100 µM (inactive)	> 100 µM (inactive)	> 100 µM (inactive)	> 100 µM (inactive)	> 100 µM (inactive)	> 100 µM (inactive)	> 100 µM (inactive)	–
Cc1c2c(C(N)=O)nccc2c(C)c2c1c1ccccc1n2Cc1ccccc1	23.1 µM (inactive)	10.8 µM (inactive)	21 µM (inactive)	11.6 µM (inactive)	17.7 µM (inactive)	22.9 µM (inactive)	6.38 µM (inactive)	43.3 µM (inactive)	9.04 µM (inactive)	16	18.8 µM (inactive)	22.7 µM (inactive)	23.3 µM (inactive)	17.2 µM (inactive)	19.1 µM (inactive)	> 10 µM (inactive)	6.07 µM (inactive)	54.5 µM (inactive)	23.3 µM (inactive)	–
Nc1nccc(NCC2(CO)CC(CCc3ccccc3)C2)n1 (stereo unspecified)	12.2 µM (inactive)	10.8 µM (inactive)	13.2 µM (inactive)	12.3 µM (inactive)	19.4 µM (inactive)	–	18.2 µM (inactive)	14.3 µM (inactive)	13.7 µM (inactive)	18	11 µM (inactive)	4.74 µM (inactive)	6.18 µM (inactive)	18.3 µM (inactive)	15.8 µM (inactive)	13.2 µM (inactive)	19.8 µM (inactive)	16.8 µM (inactive)	15.1 µM (inactive)	13.7 µM (inactive)
Cc1ccc([N+](=O)[O-])c2c(NCCCN(C)C)ccnc12	28.2 µM (inactive)	> 100 µM (inactive)	61.4 µM (inactive)	23.2 µM (inactive)	44.3 µM (inactive)	–	> 90.4 µM (inactive)	39.2 µM (inactive)	87.3 µM (inactive)	35	31 µM (inactive)	70.8 µM (inactive)	47.1 µM (inactive)	30.7 µM (inactive)	27.3 µM (inactive)	15 µM (inactive)	> 100 µM (inactive)	> 100 µM (inactive)	> 100 µM (inactive)	17 µM (inactive)
COc1ccc(C2C3=C(CCCC3=O)N(c3ccccc3)C3=C2C(=O)CCC3)cc1	> 100 µM (inactive)	–	> 100 µM (inactive)	> 100 µM (inactive)	> 100 µM (inactive)	50.6 µM (inactive)	–	–	75.7 µM (inactive)	> 100	> 100 µM (inactive)	> 100 µM (inactive)	> 100 µM (inactive)	> 100 µM (inactive)	> 100 µM (inactive)	–	43.2 µM (inactive)	> 100 µM (inactive)	> 100 µM (inactive)	–
Cc1ccsc1/C=N/Nc1cnccn1	> 100 µM (inactive)	> 100 µM (inactive)	62.4 µM (inactive)	–	> 100 µM (inactive)	> 100 µM (inactive)	> 100 µM (inactive)	> 100 µM (inactive)	> 100 µM (inactive)	> 100	76.9 µM (inactive)	> 100 µM (inactive)	35.9 µM (inactive)	> 100 µM (inactive)	–	> 100 µM (inactive)	> 100 µM (inactive)	> 100 µM (inactive)	> 100 µM (inactive)	> 100 µM (inactive)
Cc1c(OCc2cccc3ccccc23)ccc2c(O)cc(=S)oc12	25.7 µM (inactive)	29.8 µM (inactive)	82.2 µM (inactive)	31.8 µM (inactive)	48.4 µM (inactive)	–	37.3 µM (inactive)	46.3 µM (inactive)	35.6 µM (inactive)	35.3	38.2 µM (inactive)	36.1 µM (inactive)	19.4 µM (inactive)	39.2 µM (inactive)	26.9 µM (inactive)	31.4 µM (inactive)	34.8 µM (inactive)	43.6 µM (inactive)	22.1 µM (inactive)	–
CCCC(O)c1cn(C(NC(=O)c2ccccc2)P(=O)(OCC)OCC)nn1 (stereo unspecified)	> 100 µM (inactive)	> 100 µM (inactive)	> 100 µM (inactive)	> 100 µM (inactive)	> 100 µM (inactive)	–	> 100 µM (inactive)	> 100 µM (inactive)	> 100 µM (inactive)	> 100	> 100 µM (inactive)	> 100 µM (inactive)	> 100 µM (inactive)	> 100 µM (inactive)	> 100 µM (inactive)	> 100 µM (inactive)	> 100 µM (inactive)	> 100 µM (inactive)	> 100 µM (inactive)	> 100 µM (inactive)
